From patent US5278181A, “Soluble alkyl[5-[amino (phenyl)methyl]-1H-benzimidazol-2-yl] carbamate anthelmintics” (priority 1992, dated 1994)
Where “and” joins values, the source holds several entries; their conditions need not be identical. Equal entries are not always repeated.

How the values were obtained:
Brugia pahangi [1] = assay: Antifilarial dual infection screen in jirds: adult B. pahangi burden; type: in vivo, in Mongolian jirds
Description: (§1) Dual infections of the filarial worms Brugia pahangi and Acanthocheilonema viteae in jirds are used routinely for antifilarial screening [McCall, J. W., McTier, T. L., and Rowan, S. J., "In vivo models for evaluating potential antifilarial agents", Onchocerciasis/Filariasis (Proceedings of a Symposium sponsored by the World Health Organization), Kalamazoo, Mich., Apr. 8-10, 23-24 (1986)].
For this dual infection screen, male Mongolian jirds weighing 50-60 g are infected SC with 10 (5 male and 5 female) adult A. viteae, transplanted under sodium pentobarbital anesthesia (48 mg/kg) from donor hamsters infected SC 8 weeks earlier. Two weeks later, 20 (10 male and 10 female) adult B. pahangi, taken from donor jirds infected IP 8 weeks earlier, are transplanted into the peritoneal cavity of each jird under sodium pentobarbital anesthesia. After an additional week, when the jirds have acceptable levels of microfilaremia, they are randomly allocated to treatment groups of 3 animals each and a nontreated group of 4-6 animals. Microfilaremia is determined on days 0 (just prior to the first dose), 4 and 56 post-treatment. Unless indicated otherwise, compounds are suspended in hydroxyethylcellulose (0.5%) - Tween 80 (0.1%) and administered SC at 100 mg/kg/day for 5 consecutive days. All jirds are killed on day 56 post-treatment to determine the effects of drugs on adults of A. viteae and B. pahangi. Live worms are identified as to species, noted as to sex, and counted. The number of dead and/or encapsulated worms is also recorded. A reduction of ≥80% in microfilaremia or ≥50% in adult worm burden (either species) compared with pre-treatment microfilaremia or non-treated control worm burden, respectively, is considered to be significant. For secondary testing with this dual infection screen, groups of 7 animals each are used. For oral dosing, drugs are dissolved or suspended in hydroxyethylcellulose - Tween 80 and administered by gavage.

physchem = conditions: water
Brugia pahangi [2] = assay: Antifilarial effect in beagle dogs infected with Brugia pahangi; type: in vivo; conditions: for Dogs cured/Treated / Percent reduction Macrofilariae / Percent reduction Microfilariae: PO
Description: The infective larvae of B. pahangi were produced and collected as described by McCall [J. Georgia Entomol. Soc. 16:283-293, (1981)]. The dogs were given 100 L3 of B. pahangi by subcutaneous injection (SC) into the dorsum of each hind paw or 200 L3 in one hind paw (i.e., a total inoculum of 200 L3 per dog).
The dogs were randomly allocated to treatment groups containing 4 dogs. The dogs were divided by sex and ranked by declining baseline microfilarial counts (average count based on the 5 bleedings made before the day of treatment). Those dogs which were amicrofilaremic or had very few microfilariae were excluded from the trial. Of the remaining dogs, those with the highest baseline microfilaremias were assigned to seven-dog replicates. The sex of the dogs within three of the replicates was the same, while the fourth replicate contained dogs of both sexes. The dogs of a given sex with the highest levels of microfilaremia were placed in the same replicate. The next set of dogs of that sex with the next highest levels of microfilaremia was assigned to the next replicate, and so on until all of the replicates were filled. The dogs within each complete replicate were assigned to test groups using a table of random numbers [Ostle and Mensing, Statistics in Research, Third Edition, Iowa State University Press, Ames, Iowa, pp. 560-563, (1975)]. The test groups were likewise assigned to either control or treatment groups using the table of random numbers.
The first day of treatment, day 0, was approximately 144 days after infection. Drugs were administered orally as a 10% suspension in HEC-Tween 80 or in soft gelatin capsules. Drugs were administered intramuscularly or subcutaneously as a 10% suspension in peanut oil or in HEC-Tween 80. Groups of four dogs served in sham-treated controls in each experiment. All of the treatments were given by IM injection in the dorsal lumbar muscles.
All dogs were observed frequently during each day of treatment and daily throughout the remainder of the study for any signs of reactions. In addition, the hair was shaved at the injection sites to facilitate the observation of possible tissue irritation resulting from treatment.
Blood was collected from each dog on days 51, 43, 27, 19, and 5 before treatment to determine baseline microfilaremias and allocate the dogs to treatment groups. Blood was then collected from all dogs on the day before treatment on day -1, on days 7, 10, 14, 21, 28, 35, 42, 49, and 56 days after treatment. All bleedings were done at approximately the same time of day (11:00-12:00 E.S.T.). Two 20-μl blood films were prepared from each sample and stained with giemsa. Microfilarial counts were made from the 2 blood films.
The dogs were euthanized for necropsy either two or six months after the first day of treatment. Just prior to euthanasia, the dogs were given a subcutaneous injection (SC) of a two percent solution of Evans blue into the dorsum of both hind paws in order to help delineate the lymphatic vessels. This was followed at least 30 minutes later with a lethal dose of Fatal-Plus® (Vortech Pharmaceuticals, Dearborn, Mich.). A limited necropsy was performed on each dog with examination of the afferent and efferent lymphatics of both hindlimbs and the popliteal, inguinal, internal and external iliac, and lumbar lymph nodes. Any live or dead worms seen were removed. These vessels and lymph nodes were removed, teased, and soaked overnight in normal saline to allow any worms to migrate out of the tissues. The condition of the worms, their sex and number, and the location from which they were recovered were noted.
Effectiveness against the adult parasites was determined as follows: [formula] Effectiveness against microfilariae for a given day after treatment was determined as follows: [formula]
The adult B. pahangi counts and the microfilarial counts were compared using a one way analysis of variance (ANOVA). […]

B. pahangi and A. viteae = assay: Antifilarial activity in jirds, dual infection, summary in words; type: in vivo; conditions: both oral and parenteral routes
Description: as §1
For this dual infection screen, male Mongolian jirds weighing 50-60 g are infected SC with 10 (5 male and 5 female) adult A. viteae, transplanted under sodium pentobarbital anesthesia (48 mg/kg) from donor hamsters infected SC 8 weeks earlier. Two weeks later, 20 (10 male and 10 female) adult B. pahangi, taken from donor jirds infected IP 8 weeks earlier, are transplanted into the peritoneal cavity of each jird under sodium pentobarbital anesthesia. After an additional week, when the jirds have acceptable levels of microfilaremia, they are randomly allocated to treatment groups of 3 animals each and a nontreated group of 4-6 animals. Microfilaremia is determined on days 0 (just prior to the first dose), 4 and 56 post-treatment. […] Live worms are identified as to species, noted as to sex, and counted. The number of dead and/or encapsulated worms is also recorded. […]

[3] = 50(34 free base) mg/kg/day bid × 5, gelatin capsules, not significantly different from control
[4] = 100(78 free base) mg/kg/day bid × 5, gelatin capsules
[5] = 200(155 free base) mg/kg/day bid × 5, HEC-Tween 80
[6] = 200(155 free base) mg/kg/day bid × 5, gelatin capsules

solubility (physchem): > 50 mg/mL
Compound: COC(=O)Nc1nc2cc(C(N)c3ccc(F)cc3)ccc2[nH]1.Cl.Cl (racemic) [Example 2, Methyl (±)-[5-[Amino(4Fluorophenyl)Methyl]-1H-Benzimidazol-2-yl]Carbamate Dihy drochloride Salt]
% Macrofilarial reduction, B. pahangi (Brugia pahangi [1]; 1.56 mg/kg/day × 5 days, SC, day 56): 22%
% Macrofilarial reduction, B. pahangi (Brugia pahangi [1]; 3.13 mg/kg/day × 5 days, SC, day 56, 3.13 mg/kg/day): 84% and 88%
% Macrofilarial reduction, B. pahangi (Brugia pahangi [1]; 6.25 mg/kg/day × 5 days, SC, day 56, 6.25 mg/kg/day): 96% and 98%
% Macrofilarial reduction, B. pahangi (Brugia pahangi [1]; 12.5 mg/kg/day × 1 day, SC, day 56): 72%
% Macrofilarial reduction, B. pahangi (Brugia pahangi [1]; 12.5 mg/kg/day × 5 days, SC, day 56): 100%
% Macrofilarial reduction, B. pahangi (Brugia pahangi [1]; 25 mg/kg/day × 1 day, SC, day 56): 100%
% Macrofilarial reduction, B. pahangi (Brugia pahangi [1]; 25 mg/kg/day × 5 days, SC, day 56): 100%
% Macrofilarial reduction, B. pahangi (Brugia pahangi [1]; 75 mg/kg/day × 5 days, oral, day 56): 30%
% Macrofilarial reduction, B. pahangi (Brugia pahangi [1]; 100 mg/kg/day × 5 days, oral, day 56): 32%
Dogs cured/Treated (Brugia pahangi [2]; 50(34 free base) mg/kg/day bid × 5, gelatin capsules): 0/4
Percent reduction Macrofilariae (Brugia pahangi [2]; [3]): 71%
Percent reduction Microfilariae (Brugia pahangi [2]; [3]): 89%
Dogs cured/Treated (Brugia pahangi [2]; [4]): 0/4
Percent reduction Microfilariae (Brugia pahangi [2]; [4]): 86%
Percent reduction Macrofilariae (Brugia pahangi [2]; 100(78 free base) mg/kg/day bid × 5, gelatin capsules, not significantly different from control): 23%
Percent reduction Macrofilariae (Brugia pahangi [2]; 200(155 free base) mg/kg/day bid × 1, HEC-Tween 80): 97%
Dogs cured/Treated (Brugia pahangi [2]; 200(155 free base) mg/kg/day bid × 1, HEC-Tween 80, necropsied 6 months): 1/3
Percent reduction Microfilariae (Brugia pahangi [2]; 200(155 free base) mg/kg/day bid × 1, HEC-Tween 80, not significantly different from control): 77%
Percent reduction Macrofilariae (Brugia pahangi [2]; 200(155 free base) mg/kg/day bid × 3, HEC-Tween 80): 90%
Dogs cured/Treated (Brugia pahangi [2]; 200(155 free base) mg/kg/day bid × 3, HEC-Tween 80, necropsied 6 months): 0/3
Percent reduction Microfilariae (Brugia pahangi [2]; 200(155 free base) mg/kg/day bid × 3, HEC-Tween 80, not significantly different from control): 71%
Percent reduction Macrofilariae (Brugia pahangi [2]; [5]): 100%
Percent reduction Microfilariae (Brugia pahangi [2]; [5]): 100%
Dogs cured/Treated (Brugia pahangi [2]; 200(155 free base) mg/kg/day bid × 5, HEC-Tween 80, necropsied 6 months): 3/3
Percent reduction Macrofilariae (Brugia pahangi [2]; [6]): 99%
Percent reduction Microfilariae (Brugia pahangi [2]; [6]): 100%
Dogs cured/Treated (Brugia pahangi [2]; 200(155 free base) mg/kg/day bid × 5, gelatin capsules, necropsied 6 months): 5/6
Percent reduction Macrofilariae (Brugia pahangi [2]; 200(155 free base) mg/kg/day × 1, HEC-Tween 80): 79%
Dogs cured/Treated (Brugia pahangi [2]; 200(155 free base) mg/kg/day × 1, HEC-Tween 80, necropsied 6 months): 1/3
Percent reduction Microfilariae (Brugia pahangi [2]; 200(155 free base) mg/kg/day × 1, HEC-Tween 80, not significantly different from control): 74%
Percent reduction Macrofilariae (Brugia pahangi [2]; 200(155 free base) mg/kg/day × 3, HEC-Tween 80): 97%
Dogs cured/Treated (Brugia pahangi [2]; 200(155 free base) mg/kg/day × 3, HEC-Tween 80, necropsied 6 months): 1/3
Percent reduction Microfilariae (Brugia pahangi [2]; 200(155 free base) mg/kg/day × 3, HEC-Tween 80, not significantly different from control): 78%
cure of B. pahangi infections (Brugia pahangi [2]; oral, 200 mg/kg/day (155 base equivalent) for 1, 3 or 5 days): cured dogs of B. pahangi infections
antifilarial activity in jirds (B. pahangi and A. viteae): outstanding antifilarial activity
